Consider 1 compound from PubChem BioAssay AID743076.

The test system of the test is P. falciparum blood stage, IPP rescue, flow cytometry 72 h. In words: IPP rescue of P. falciparum growth inhibition, mechanism study for antimalarial apicoplast targeting, P. falciparum blood stage (AID 743076). Conditions: at 5 µM; active compounds read high.

As to `O=C(O)C1Cc2c([nH]c3ccccc23)C(c2ccc(Cl)cc2Cl)N1` (stereo unspecified), the parasitemia ratio IPP rescue/non-rescue was 6.32.
